Data set [1] concerns Rhipicephalus sanguineus. As to the kind of experiment: Tick mortality in combination with fipronil (25 ppm), 100% mortality at 6 hours. The conditions noted are these: dose of compound combined with fipronil 25 ppm producing 100% mortality in 6 hours. How it is done:
Observations were made at 4 h and 24 h post-treatment.
The compounds were then combined with fipronil (25 ppm) and tested for 100% mortality at 6 hours.

The conditions of data set [2]: pH about 5.0 to about 6.0; cited from earlier work.
Data set [3] deals with Rhipicephalus sanguineus. Description: Tick contact behavioral assay (TCBA), excitatory response in glass vials. As to conditions: 24 h post-treatment. Here is the method:
Another screening method used to test compounds of the present invention is the tick contact behavioral assay (TCBA). Compounds that elicit excitatory activity in ticks should increase their motility, thus increasing the parasite's chances of encountering fipronil if fipronil is present.
The TCBA was performed on Rhipicephalus sanguineus in glass vials. Briefly, a paper disc is treated with the desired amount of test compound and placed into the vial with approximately ten ticks. The ticks are observed for excitatory response but are not otherwise stimulated for evaluation.
From these observations, an EC50 for excitatory response is established. Observations were made at 4 h and 24 h post-treatment. […]

For data set [4] the following is noted: 14C radiolabeled drug, spot-on, beagle dogs; cited from earlier work.

The values below come from patent publication US9125407B2, “Compositions comprising an aryl pyrazole and a substituted imidazole, methods and uses thereof” (MERIAL LIMITED, priority 2011, dated 2015).

As to `Cc1ccc(/N=C/N(C)/C=N/c2ccc(C)cc2C)c(C)c1` [Amitraz, amitraz], in data set [1], the “Fipronil combination (25 ppm) (6 h mortality) Dose (ppm)” value turned out to be 12.5 ppm. Also, in data set [2], the “stability at pH of about 5.0 to about 6.0” value is on record as “degrade”. Moreover, the “TCBA Assay EC50 (@ 24 h, ppm)” value in data set [3] was determined as 1.6 ppm.

On to `Cc1cccc(C(C)c2ncc[nH]2)c1C` (centres unmarked) [demiditraz], for which, in data set [1], the “Fipronil combination (25 ppm) (6 h mortality) Dose (ppm)” value came out at 12.5 ppm. Besides, the “TCBA Assay EC50 (@ 24 h, ppm)” value in data set [3] is 5 ppm. In the same order, the values of `Cc1cccc2c1CCCC2c1ncc[nH]1` (centres unmarked) [2-(5-methyl-1,2,3,4-tetrahydronaphthalen-1-yl)-1H-imidazole] are 25 ppm and 6 ppm. In the same order, the values of `Cc1cccc2c1CCC2c1ncc[nH]1` (centres unmarked) [ML-449, 1H-imidazole, 2-(2,3-dihydro-4-methyl-1H-inden-1-yl)] are 25 ppm and 6 ppm.

For `N#Cc1nn(-c2c(Cl)cc(C(F)(F)F)cc2Cl)c(N)c1[S+]([O-])C(F)(F)F` (centres unmarked) [fipronil, 5-amino-3-cyano-1-(2,6-dichloro-4-trifluoromethylphenyl)-4-trifluoromethylsulfinylpyrazole], in data set [4], the “time persistently detected in whole skin after treatment” value was “up to 56 days”.

As for `Cc1cccc2c1C(c1ncc[nH]1)CC2` (centres unmarked) [1H-imidazole, 2-(2,3-dihydro-7-methyl-1H-inden-1-yl)], the “TCBA Assay EC50 (@ 24 h, ppm)” value in data set [3] worked out at 6 ppm.
